# Assays:
# [1] = biological target: T1, TarG (TarGH WTA transporter, transmembrane domain) (Staphylococcus aureus, UniProt A0A0H2XIF1); experiment: cryo-EM structures ([…] Å with AMP-PNP; […] Å with ATPγS), MST; IC50 from malachite green ATPase assay of purified TarGH; type: biochemical
# T1 construct: gene tagG; full-length TarG with N-terminal His tag, co-expressed with TarH (residues 1–264) as TarG2H2 heterotetramer; with TarH (Q2FJ01)
# [2] = biological target: T2, TarH (TarGH nucleotide binding domain) (Staphylococcus aureus, UniProt Q2FJ01); experiment: cryo-EM structure at […] Å
# T2 construct: gene tagH; full-length TarH (residues 1–264) in TarG2H2 heterotetramer; with TarG (A0A0H2XIF1)
# [3] = biological target: T2, TarH (TarGH nucleotide binding domain); experiment: malachite green ATPase assay of purified TarGH (Michaelis-Menten); type: biochemical
# T2 sequence (Q2FJ01 whole entry, the tested form may be a part): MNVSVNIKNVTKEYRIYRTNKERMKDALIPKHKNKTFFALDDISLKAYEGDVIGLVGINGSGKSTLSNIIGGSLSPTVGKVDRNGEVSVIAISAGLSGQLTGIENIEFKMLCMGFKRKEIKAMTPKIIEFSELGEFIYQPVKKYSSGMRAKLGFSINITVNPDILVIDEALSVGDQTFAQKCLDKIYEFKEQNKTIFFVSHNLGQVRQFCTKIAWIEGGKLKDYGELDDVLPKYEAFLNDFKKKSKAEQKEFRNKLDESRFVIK
# T2 sequence (A0A0H2XIF1 1-270 partner): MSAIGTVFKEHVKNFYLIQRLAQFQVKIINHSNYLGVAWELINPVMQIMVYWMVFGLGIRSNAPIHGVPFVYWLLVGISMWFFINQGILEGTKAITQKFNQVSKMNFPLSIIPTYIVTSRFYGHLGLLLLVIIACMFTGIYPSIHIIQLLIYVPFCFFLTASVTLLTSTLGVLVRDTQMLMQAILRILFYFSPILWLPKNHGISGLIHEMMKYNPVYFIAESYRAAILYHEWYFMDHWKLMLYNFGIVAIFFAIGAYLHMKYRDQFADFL
# T1 sequence (A0A0H2XIF1 1-270): as the sequence (A0A0H2XIF1 1-270 partner) above
# T1 sequence (Q2FJ01 whole entry partner, the tested form may be a part): as the sequence (Q2FJ01 whole entry, the tested form may be a part) above
structure (smiles),measurement,setting,value
Cc1c(CC(=O)N2CCC[C@H]2C(=O)O)c(=O)oc2c(C)c3occ(-c4ccc(Cl)cc4)c3cc12 [targocil-II],IC50,[1],6.5 ± 1.2 µM
Nc1ncnc2c1ncn2[C@@H]1O[C@H](CO[P@](=O)(O)O[P@](=O)(O)O[P@@](=O)(O)S)[C@@H](O)[C@H]1O [ATPγS],cryo-EM structure at 2.3 Å,[2],"ATPγS is well resolved at the TarH dimer interface, forming characteristic interactions with the ABC motifs"
Nc1ncnc2c1ncn2[C@@H]1O[C@H](COP(=O)(O)OP(=O)(O)OP(=O)(O)O)[C@@H](O)[C@H]1O [ATP],malachite green ATPase assay of purified TarGH (Michaelis-Menten),[3],~ 70 mol Pi/min mol protein
